Reference: patent publication US6541450B1, “Parathyroid hormone analogues for the treatment of osteoporosis” (National Research Council of Canada, priority 1994, dated 2003)
Entries after “also recorded” stand apart in the source; their conditions may differ. Read-outs that look alike come from different tables or passages of the source. Where a SMILES comes first, the peptide text is derived from it. Bridges are numbered along the chain shown (N, C = ends). Where no end group is shown, it is not given here.

Tests used:
[1] = tested on: anesthetized female Sprague-Dawley rats; experiment: Hypotensive effect, tail artery pressure in anaesthetized rats; details: for time to reduction of tail artery pressure: injection into a femoral vein
Experimental: Female Sprague-Dawley rats (weighing over 290 g) were anaesthetized with intraperitoneally injected sodium pentobarbital (65 mg/kg body weight). Rectal temperature was monitored with a YS1402 thermistor (Yellow Springs Instrument Co., Inc. Yellow Springs, Ohio) and maintained between 36.0 and 38.5° C. throughout the experiment. Ear pinna temperature was also monitored using a YSi banjo thermistor. The tail artery was exposed to cannulated with a Jelco 25-gIV catheter (Johnson and Johnson Medical Inc., Arlington, Tex.) and connected to a Statham pressure transducer, the signals from which were recorded digitally with a Biopac Systems MP100 Monitor (Harvard Instruments, Saint Laurent, QC, Canada). For intravenous injection of PTH or one of its fragments, a femoral vein was also exposed. After surgery, the rat was allowed to stabilize for 8 min after which PTH or one of its fragments (dissolved in acidified saline containing 0.001 N HCl) was injected into the femoral vein or under the skin of the abdomen. Data were collected for 12 min after intravenous injection or for 22 min after subcutaneous injection.

[2] = molecular target: T1, adenylyl cyclase, ROS 17/2 cells (Rattus norvegicus, UniProt P25961); experiment: Adenylyl cyclase stimulation, [3H]-cyclic AMP production in ROS 17/2 cells; format: cell-based
T1 sequence (P25961 27-591): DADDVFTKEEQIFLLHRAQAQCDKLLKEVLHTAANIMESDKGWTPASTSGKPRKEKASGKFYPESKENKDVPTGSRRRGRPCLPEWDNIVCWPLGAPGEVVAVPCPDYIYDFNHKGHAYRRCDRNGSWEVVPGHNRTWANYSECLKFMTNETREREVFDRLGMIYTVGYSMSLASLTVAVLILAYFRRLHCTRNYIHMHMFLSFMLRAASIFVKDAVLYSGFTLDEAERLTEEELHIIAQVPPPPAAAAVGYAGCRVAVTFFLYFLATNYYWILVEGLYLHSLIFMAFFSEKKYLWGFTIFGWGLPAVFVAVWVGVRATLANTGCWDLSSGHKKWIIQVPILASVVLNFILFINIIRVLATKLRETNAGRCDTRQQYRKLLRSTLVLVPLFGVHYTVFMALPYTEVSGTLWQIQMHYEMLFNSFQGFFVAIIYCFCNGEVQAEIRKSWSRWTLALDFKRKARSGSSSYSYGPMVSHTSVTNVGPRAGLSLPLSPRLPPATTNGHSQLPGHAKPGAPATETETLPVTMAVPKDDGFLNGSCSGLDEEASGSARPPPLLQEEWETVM

[3] = tested on: ovariectomized (OVX) rats with severely depleted trabecular bone; experiment: Bone restoration in OVX rats with severely depleted trabecular bone, treatment from 9 weeks after OVX; format: in vivo, rat; details: 0.6 nmole/100 g once daily for 6 weeks, started 9 weeks after OVX
Source text: Doses were based upon dose-response data on hPTH(1-31)-NH2. […] By the end of the 9th week they had lost about 75% of their femoral trabecular bone mass. […] The fragment could also stimulate trabecular bone growth in much older rates. […] Accordingly, the dosage of 0.6 nmole/100 g of body weight was used in further tests.
In this second example of bone restoration, the abilities of the lactam fragments to restore severely depleted trabecular bone are compared. In this experiment, the 6-week program of once-daily injections of 0.6 nmole of peptide/100 g of body weight of young sexually mature rats was delayed until the end of the 9th week after OVX. At this time, 75% of their trabecular bone had been lost.

[4] = tested on: ovariectomized (OVX) Sprague-Dawley rats; experiment: Anabolic activity in ovariectomized rat model, injections from 2nd to 8th week after OVX; format: in vivo; details: for osteogenic activity, in words: subcutaneously injected
Source text: A full description of the protocol is given in Rixon et al, J. Bone & Mineral Research 9, 1179-1189, 1994 and Whitfield et al Calcif. Tissue Int. 58, 81-87, 1996 incorporated herein by reference. Normal, Sham-OVX (ovariectomized), and OVX Sprague-Dawley rats (3 months-old; 255-260 g) were purchased from
Charles River Laboratories (St. Constant, QC). The rats were randomized into groups of 8 animals which received Purina rat chow and water ad libitum. There were no unscheduled deaths. The animals received 6, once-daily subcutaneous injections/week starting at the end of the second week after OVX, and ending at the end of the 8th week after OVX (i.e., 36 injections). Eight Sham-OVX and 8 OVX controls rats received 36 injections of vehicle (0.15 M NaCl containing 0.001N HCl) while 8 OVX rats received 0.6 nmole of fragment in vehicle/100 g of body weight). At the end of the 8th week after OVX, femurs were removed isolated, cleaned, and cut in half at mid-diaphysis and the proximal half was discarded. After removing the epiphysis, each half-femur was split lengthwise into two parts and the bone marrow was flushed out.
The bone-building potencies of the fragments were assessed from the changes in the mean thicknesses (area/perimeter) of the trabeculae in the distal half-femurs from the variously treated animals. To measure mean trabecular thickness, the two demineralized half-femurs from each rat were dehydrated and embedded in paraffin. Longitudinal, 10-μm sections from the middle plane of each bone were cut and then strained with Sanderson's rapid bone stain (Surgipath Medical Industries, Inc., Winnipeg, MB, Canada). The mean trabecular thickness was measured using a M4 imaging system and bone morphometric software from Imaging Research Inc., (St. Catherines, ON, Canada).
The results are further presented in the form of a bar graph in FIG. 7.

[5] = molecular target: T1, adenylyl cyclase, ROS 17/2 cells; details: previously reported, cited from earlier work
PTH receptor [6] = molecular target: T2, PTH receptor (rat (ROS 17/2 rat osteosarcoma cell …, UniProt P25961)); experiment: cell-based or functional assay
PTH receptor [7] = molecular target: T2, PTH receptor; experiment: cell-based or functional assay; remark: listed apart in the source
[8] = ROS cell line, read-out: EC50, AC-stimulating activity
[9] = intravenous, 0.8 nmol/100 g of body weight

CC[C@H](C)[C@H](NC(=O)[C@H](CCC(=O)O)NC(=O)[C@H](CO)NC(=O)[C@@H](NC(=O)[C@@H](N)CO)C(C)C)C(=O)N[C@@H](CCC(N)=O)C(=O)N[C@@H](CC(C)C)C(=O)N[C@@H](CCSC)C(=O)N[C@@H](Cc1c[nH]cn1)C(=O)N[C@@H](CC(N)=O)C(=O)N[C@@H](CC(C)C)C(=O)NCC(=O)N[C@@H](CCCCN)C(=O)N[C@@H](Cc1c[nH]cn1)C(=O)N[C@@H](CC(C)C)C(=O)N[C@@H](CC(N)=O)C(=O)N[C@@H](CO)C(=O)N[C@@H](CCSC)C(=O)N[C@@H](CCC(=O)O)C(=O)N[C@@H](CCCNC(=N)N)C(=O)N[C@H](C(=O)N[C@H]1CCC(=O)NCCCC[C@@H](C(=O)N[C@@H](CC(C)C)C(=O)N[C@@H](CC(C)C)C(=O)N[C@@H](CCC(N)=O)C(=O)N[C@@H](CC(=O)O)C(=O)N[C@H](C(N)=O)C(C)C)NC(=O)[C@H](CCCNC(=N)N)NC(=O)[C@H](CC(C)C)NC(=O)[C@H](Cc2c[nH]c3ccccc23)NC1=O)C(C)C [peptide 3, [Leu^27]cyclo(Glu^22-Lys^26)-hPTH-(1-31)-NH2] (H-SVSEIQLMHNLGKHLNSMERVEWLRKLLQDV-NH2; lactam 22-26; N-terminus assumed)
hypotensive action, in words ([1]; subcutaneous injection): enhanced hypotensive effects | time for tail artery pressure to fall to its minimum ([1]; subcutaneous injection): much shorter time | increase in activity (AC) of cyclization plus Leu27 versus native sequence 1 ([2]; ROS cell line): ~6 fold | trabecular bone volume ([3]; listed as (Leu^27)cyclo(Glu^22-Lys^26)-hPTH-(1-31)NH2): restored the trabecular bone volume to the values in normal control rats | trabecular bone volume ([3]; listed as (Leu^27)cyclo(Glu^22-Lys^26)hPTH-(1-31)-NH2): most effective of the fragments, restoring the bones to the values in normal control rats | trabecular thickness (bone-building potency) ([4]; 0.6 nmole/100 g s.c., 36 injections, weeks 2-8 after OVX): especially superior activity compared to the linear analogue

CC[C@H](C)[C@H](NC(=O)[C@H](CCC(=O)O)NC(=O)[C@H](CO)NC(=O)[C@@H](NC(=O)[C@@H](N)CO)C(C)C)C(=O)N[C@@H](CCC(N)=O)C(=O)N[C@@H](CC(C)C)C(=O)N[C@@H](CCSC)C(=O)N[C@@H](Cc1c[nH]cn1)C(=O)N[C@@H](CC(N)=O)C(=O)N[C@@H](CC(C)C)C(=O)NCC(=O)N[C@@H](CCCCN)C(=O)N[C@@H](Cc1c[nH]cn1)C(=O)N[C@@H](CC(C)C)C(=O)N[C@@H](CC(N)=O)C(=O)N[C@@H](CO)C(=O)N[C@@H](CCSC)C(=O)N[C@@H](CCC(=O)O)C(=O)N[C@@H](CCCN=C(N)N)C(=O)N[C@H](C(=O)N[C@@H](CCC(=O)O)C(=O)N[C@@H](Cc1c[nH]c2ccccc12)C(=O)N[C@@H](CC(C)C)C(=O)N[C@@H](CCCN=C(N)N)C(=O)N[C@@H](CCCCN)C(=O)N[C@@H](CCCCN)C(=O)N[C@@H](CC(C)C)C(=O)N[C@@H](CCC(N)=O)C(=O)N[C@@H](CC(=O)O)C(N)=O)C(C)C [peptide 6, hPTH-(1-30)-NH2] (H-SVSEIQLMHNLGKHLNSMERVEWLRKKLQD-NH2)
EC50 [5, 8]: 20 nM | rate of transport of subcutaneously injected peptide to the vascular system ([1]; subcutaneous, 0.8 nmol/100 g of body weight): significantly (p<0.05) reduced rates of transport | EC50 [2, 8]: 20 nM

CC[C@H](C)[C@H](NC(=O)[C@H](CCC(=O)O)NC(=O)[C@H](CO)NC(=O)[C@@H](NC(=O)[C@@H](N)CO)C(C)C)C(=O)N[C@@H](CCC(N)=O)C(=O)N[C@@H](CC(C)C)C(=O)N[C@@H](CCSC)C(=O)N[C@@H](Cc1c[nH]cn1)C(=O)N[C@@H](CC(N)=O)C(=O)N[C@@H](CC(C)C)C(=O)NCC(=O)N[C@@H](CCCCN)C(=O)N[C@@H](Cc1c[nH]cn1)C(=O)N[C@@H](CC(C)C)C(=O)N[C@@H](CC(N)=O)C(=O)N[C@@H](CO)C(=O)N[C@@H](CCSC)C(=O)N[C@@H](CCC(=O)O)C(=O)N[C@@H](CCCNC(=N)N)C(=O)N[C@H](C(=O)N[C@@H](CCC(=O)O)C(=O)N[C@@H](Cc1c[nH]c2ccccc12)C(=O)N[C@@H](CC(C)C)C(=O)N[C@@H](CCCNC(=N)N)C(=O)N[C@@H](CCCCN)C(=O)N[C@@H](CCCCN)C(=O)N[C@@H](CC(C)C)C(=O)N[C@@H](CCC(N)=O)C(=O)N[C@@H](CC(=O)O)C(N)=O)C(C)C [peptide 6, hPTH-(1-30)-NH2] (H-SVSEIQLMHNLGKHLNSMERVEWLRKKLQD-NH2)
time to reduction of tail artery pressure [1]: about 1 minute | hypotensive action, in words ([1]; intravenous injection): potently hypotensive | hypotensive action, in words ([1]; subcutaneous injection): reduces blood pressure as much as hPTH-(1-31)-NH2 | time for tail artery pressure to fall to its minimum ([1]; subcutaneous injection): 13.8 ± 2.3 min | total blood pressure drop versus other analogues ([1]; subcutaneously or intravenously, 0.8 nmol/100 g of body weight): not significantly different (p>0.05) | AC-stimulating activity, comparison in words [2]: stimulates AC almost as strongly as hPTH-(1-31)-NH and hPTH-(1-34) | osteogenic activity, in words [4]: does not stimulate bone formation

[Leu^27]-hPTH-(1-34)-NH2 (SVSEIQLMHNLGKHLNSMERVEWLRKLLQDVHNF-NH2; not fully specified (bridges); UniProt P01270 32-65, looked up, variant K27L) [reference compound]
AC activity in the ROS cell line, comparison in words [5]: more active in stimulating AC activity in the ROS cell line than hPTH-(1-34)-NH2

B1: [Leu^27]cyclo(Glu^22-Lys^26)-hPTH-(1-31)-NH2 (peptide)
peptide: SVSEIQLMHNLGKHLNSMERVEWLRKLLQDV-NH2
modifications: lactam 22-26; N-terminus assumed
SMILES: CC[C@H](C)[C@H](NC(=O)[C@H](CCC(=O)O)NC(=O)[C@H](CO)NC(=O)[C@@H](NC(=O)[C@@H](N)CO)C(C)C)C(=O)N[C@@H](CCC(N)=O)C(=O)N[C@@H](CC(C)C)C(=O)N[C@@H](CCSC)C(=O)N[C@@H](Cc1c[nH]cn1)C(=O)N[C@@H](CC(N)=O)C(=O)N[C@@H](CC(C)C)C(=O)NCC(=O)N[C@@H](CCCCN)C(=O)N[C@@H](Cc1c[nH]cn1)C(=O)N[C@@H](CC(C)C)C(=O)N[C@@H](CC(N)=O)C(=O)N[C@@H](CO)C(=O)N[C@@H](CCSC)C(=O)N[C@@H](CCC(=O)O)C(=O)N[C@@H](CCCNC(=N)N)C(=O)N[C@H](C(=O)N[C@H]1CCC(=O)NCCCC[C@@H](C(=O)N[C@@H](CC(C)C)C(=O)N[C@@H](CC(C)C)C(=O)N[C@@H](CCC(N)=O)C(=O)N[C@@H](CC(=O)O)C(=O)N[C@H](C(N)=O)C(C)C)NC(=O)[C@H](CCCNC(=N)N)NC(=O)[C@H](CC(C)C)NC(=O)[C@H](Cc2c[nH]c3ccccc23)NC1=O)C(C)C
AC-stimulating activity, EC50 (PTH receptor [6]): 3.3 nM | Adenylyl Cyclase (EC50) (PTH receptor [7]): 3 nM

B2: hPTH-(1-84) (protein, UniProt P01270 32-115, looked up)
Parathyroid hormone: SVSEIQLMHNLGKHLNSMERVEWLRKKLQDVHNFVALGAPLAPRDAGSQRPRKKEDNVLVESHEKSLGEADKADVNVLTKAKSQ
modifications: Parathyroid hormone
notes: full-length human parathyroid hormone, AC/PLC-stimulating
time to reduction of tail artery pressure [1]: about 1 minute | hypotensive action, in words ([1]; intravenous injection): no significant difference | reduction of tail artery pressure [1, 9]: 43.2±5.8 mm Hg | time to maximum drop in tail artery pressure [1, 9]: 0.9 ± 0.08 min | time for tail artery pressure to fall to its minimum ([1]; subcutaneous injection): needs the same amount of time to reduce the blood pressure | osteogenic activity, in words [4]: equally osteogenic; also recorded: strongly osteogenic

SVSEIQLMHNLGKHLNSMERVEWLRKKLQDV-NH2 (lactam 27-30) [cyclo(Lys^27-Asp^30)-hPTH-(1-31)-NH2]
adenylyl cyclase stimulation, EC50 (PTH receptor [6]): 40.3 nM | Adenylyl Cyclase (EC50) (PTH receptor [7]): 40 nM
